Experiments:
PREP = molecular target: T1, PREP (Homo sapiens, UniProt P48147); test: In vitro PREP inhibition assay; type: biochemical
T1 sequence (P48147 1-710): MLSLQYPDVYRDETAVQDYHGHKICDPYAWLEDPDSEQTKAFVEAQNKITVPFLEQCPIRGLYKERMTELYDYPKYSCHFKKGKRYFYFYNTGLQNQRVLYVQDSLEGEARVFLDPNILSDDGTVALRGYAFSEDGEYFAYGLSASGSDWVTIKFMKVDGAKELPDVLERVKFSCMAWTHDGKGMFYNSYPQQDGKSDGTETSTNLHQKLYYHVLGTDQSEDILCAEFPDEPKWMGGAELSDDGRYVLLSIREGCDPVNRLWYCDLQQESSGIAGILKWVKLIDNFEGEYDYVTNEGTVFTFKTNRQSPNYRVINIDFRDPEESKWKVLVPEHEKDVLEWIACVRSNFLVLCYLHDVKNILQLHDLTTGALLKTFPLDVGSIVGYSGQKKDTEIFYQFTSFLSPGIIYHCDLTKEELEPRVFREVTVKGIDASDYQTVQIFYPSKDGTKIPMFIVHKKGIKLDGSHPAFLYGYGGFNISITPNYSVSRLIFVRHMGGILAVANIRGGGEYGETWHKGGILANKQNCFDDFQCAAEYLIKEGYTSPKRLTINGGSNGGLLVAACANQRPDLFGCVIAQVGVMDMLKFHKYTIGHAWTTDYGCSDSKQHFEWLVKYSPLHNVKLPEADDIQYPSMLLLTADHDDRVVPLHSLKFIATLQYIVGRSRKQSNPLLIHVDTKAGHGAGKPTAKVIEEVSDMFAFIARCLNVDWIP
Method: (§1) FIG. 6 depicts a table outlining various in vitro and in vivo assay results for DPP inhibitors. CLogP values were calculated using ChemDraw Ultra version 11.0. […] The methods of biological testing used are described in International Patent Application PCT/US06/047853, published as WO/2007/100374, which claims priority to U.S. […] These methods are herein incorporated in their entirety by reference. FIGS. 6-9 depict the results from various biological assays. The CLogP values in these figures were calculated using ChemDraw Ultra version 11.0.

DPP IV = DPP IV (Homo sapiens, UniProt P27487); test: In vitro DPP IV inhibition assay (IC50, GP-AMC substrate); type: biochemical; settings: potency ratio versus oxy-analog compound 11
Sequence of DPP IV (P27487 whole entry, species assumed): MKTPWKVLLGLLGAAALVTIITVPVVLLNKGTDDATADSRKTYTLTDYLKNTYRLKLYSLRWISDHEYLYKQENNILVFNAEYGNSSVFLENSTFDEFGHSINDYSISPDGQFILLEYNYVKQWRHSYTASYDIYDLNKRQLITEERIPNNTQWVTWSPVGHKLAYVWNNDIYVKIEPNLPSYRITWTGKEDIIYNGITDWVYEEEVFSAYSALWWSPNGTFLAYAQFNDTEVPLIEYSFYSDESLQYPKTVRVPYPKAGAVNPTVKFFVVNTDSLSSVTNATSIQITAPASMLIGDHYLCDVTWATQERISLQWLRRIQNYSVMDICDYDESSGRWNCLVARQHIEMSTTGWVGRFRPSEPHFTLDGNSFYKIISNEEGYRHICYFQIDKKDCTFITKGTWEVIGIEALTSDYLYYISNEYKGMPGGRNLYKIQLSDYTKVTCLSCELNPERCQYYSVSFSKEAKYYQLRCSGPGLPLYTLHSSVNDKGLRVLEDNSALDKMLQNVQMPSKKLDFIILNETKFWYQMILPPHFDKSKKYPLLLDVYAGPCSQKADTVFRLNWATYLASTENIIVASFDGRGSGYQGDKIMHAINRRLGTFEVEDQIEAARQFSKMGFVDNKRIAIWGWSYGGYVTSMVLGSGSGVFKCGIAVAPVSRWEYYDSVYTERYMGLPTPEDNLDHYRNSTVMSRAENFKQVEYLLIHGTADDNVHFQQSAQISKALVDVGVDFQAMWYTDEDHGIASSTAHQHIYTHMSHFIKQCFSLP
Method: (§2) FIG. 6 depicts a table outlining various in vitro and in vivo assay results for DPP inhibitors. CLogP values were calculated using ChemDraw Ultra version 11.0. […] All except PREP used the same substrate (GP-AMC), but different concentrations (10 μM for DPP IV, 25 μM for DPP8 and DPP9, and 50 μM for FAP).
(§3) The methods of biological testing used are described in International Patent Application PCT/US06/047853, published as WO/2007/100374, which claims priority to U.S. Provisional Patent Application No. 60/752,017. These methods are herein incorporated in their entirety by reference.
(§4) FIGS. 6-9 depict the results from various biological assays. The CLogP values in these figures were calculated using ChemDraw Ultra version 11.0.

DPP9 [1] = molecular target: T2, DPP9 (Homo sapiens, UniProt Q86TI2); test: In vitro DPP9 inhibition assay (IC50, GP-AMC substrate); type: biochemical; settings: DPP IV versus DPP9
T2 sequence (Q86TI2 whole entry, species assumed): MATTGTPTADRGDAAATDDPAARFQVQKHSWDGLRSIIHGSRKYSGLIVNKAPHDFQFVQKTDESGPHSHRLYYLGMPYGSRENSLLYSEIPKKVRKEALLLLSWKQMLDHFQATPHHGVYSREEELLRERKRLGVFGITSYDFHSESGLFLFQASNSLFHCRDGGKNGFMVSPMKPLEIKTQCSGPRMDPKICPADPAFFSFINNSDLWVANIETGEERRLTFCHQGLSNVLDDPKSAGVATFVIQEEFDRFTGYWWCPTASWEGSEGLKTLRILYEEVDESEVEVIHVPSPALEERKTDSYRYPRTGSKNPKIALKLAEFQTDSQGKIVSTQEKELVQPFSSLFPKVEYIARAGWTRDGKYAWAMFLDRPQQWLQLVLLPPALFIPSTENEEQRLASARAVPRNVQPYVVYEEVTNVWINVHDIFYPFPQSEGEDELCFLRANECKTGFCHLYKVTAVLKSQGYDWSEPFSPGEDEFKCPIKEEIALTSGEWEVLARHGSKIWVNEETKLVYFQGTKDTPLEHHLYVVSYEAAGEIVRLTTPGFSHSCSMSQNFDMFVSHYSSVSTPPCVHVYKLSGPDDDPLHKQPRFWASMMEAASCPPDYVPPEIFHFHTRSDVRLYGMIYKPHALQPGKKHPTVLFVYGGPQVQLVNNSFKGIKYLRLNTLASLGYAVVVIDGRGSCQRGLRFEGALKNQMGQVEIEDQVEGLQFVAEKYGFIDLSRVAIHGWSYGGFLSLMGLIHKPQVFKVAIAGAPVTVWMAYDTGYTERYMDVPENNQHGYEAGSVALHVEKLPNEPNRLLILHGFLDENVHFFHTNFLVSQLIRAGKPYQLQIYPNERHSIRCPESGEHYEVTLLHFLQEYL
Method: as §2, §3, §4

DPP9 [2] = molecular target: T2, DPP9; test: Intracellular IC50 (IC-IC50), intracellular potency against DPP9; type: cell-based; settings: compounds preincubated at pH 2.0 for 4 h
Excerpt: It is important to note that IC-IC50 is not a measure of cell permeability. Like IC50, it is a composite of factors, including cell permeability, potency against DPP9, rate and equilibrium of the intramolecular cyclization reaction, and inhibitor stability, both intrinsic and intracellular.

Sprague-Dawley (SD) rats = settings: rat, in vivo, 300 mg/kg
Method: In an experiment, 13 male SD rats were given 300 mg/kg of compound 5.

FAP = molecular target: T3, FAP (Homo sapiens, UniProt Q12884); test: In vitro FAP inhibition assay (GP-AMC substrate); type: biochemical
T3 sequence (Q12884 1-760): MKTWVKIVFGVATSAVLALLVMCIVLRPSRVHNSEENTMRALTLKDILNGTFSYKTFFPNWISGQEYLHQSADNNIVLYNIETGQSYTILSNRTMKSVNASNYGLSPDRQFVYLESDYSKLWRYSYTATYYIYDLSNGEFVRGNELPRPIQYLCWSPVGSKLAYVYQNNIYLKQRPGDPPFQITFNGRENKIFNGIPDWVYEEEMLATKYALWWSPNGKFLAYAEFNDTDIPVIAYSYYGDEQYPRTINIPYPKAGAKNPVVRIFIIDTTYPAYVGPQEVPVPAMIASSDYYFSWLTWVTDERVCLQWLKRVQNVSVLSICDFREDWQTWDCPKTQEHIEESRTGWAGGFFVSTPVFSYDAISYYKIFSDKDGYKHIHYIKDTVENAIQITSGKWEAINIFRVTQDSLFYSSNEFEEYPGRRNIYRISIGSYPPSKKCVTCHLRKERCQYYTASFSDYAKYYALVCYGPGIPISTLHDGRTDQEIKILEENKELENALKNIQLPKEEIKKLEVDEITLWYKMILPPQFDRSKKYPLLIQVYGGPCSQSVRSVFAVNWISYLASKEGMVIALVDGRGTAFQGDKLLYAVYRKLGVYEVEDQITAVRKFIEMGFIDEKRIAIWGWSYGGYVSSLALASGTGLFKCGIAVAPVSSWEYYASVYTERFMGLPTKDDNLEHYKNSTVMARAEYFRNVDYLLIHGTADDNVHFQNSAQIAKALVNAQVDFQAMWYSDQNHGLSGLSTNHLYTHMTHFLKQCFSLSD
Method: as §1

DPP8 = DPP8 (Homo sapiens, UniProt Q6V1X1); test: In vitro DPP8 inhibition assay (IC50, GP-AMC substrate); type: biochemical; settings: DPP IV versus DPP8
Sequence of DPP8 (Q6V1X1 whole entry, species assumed): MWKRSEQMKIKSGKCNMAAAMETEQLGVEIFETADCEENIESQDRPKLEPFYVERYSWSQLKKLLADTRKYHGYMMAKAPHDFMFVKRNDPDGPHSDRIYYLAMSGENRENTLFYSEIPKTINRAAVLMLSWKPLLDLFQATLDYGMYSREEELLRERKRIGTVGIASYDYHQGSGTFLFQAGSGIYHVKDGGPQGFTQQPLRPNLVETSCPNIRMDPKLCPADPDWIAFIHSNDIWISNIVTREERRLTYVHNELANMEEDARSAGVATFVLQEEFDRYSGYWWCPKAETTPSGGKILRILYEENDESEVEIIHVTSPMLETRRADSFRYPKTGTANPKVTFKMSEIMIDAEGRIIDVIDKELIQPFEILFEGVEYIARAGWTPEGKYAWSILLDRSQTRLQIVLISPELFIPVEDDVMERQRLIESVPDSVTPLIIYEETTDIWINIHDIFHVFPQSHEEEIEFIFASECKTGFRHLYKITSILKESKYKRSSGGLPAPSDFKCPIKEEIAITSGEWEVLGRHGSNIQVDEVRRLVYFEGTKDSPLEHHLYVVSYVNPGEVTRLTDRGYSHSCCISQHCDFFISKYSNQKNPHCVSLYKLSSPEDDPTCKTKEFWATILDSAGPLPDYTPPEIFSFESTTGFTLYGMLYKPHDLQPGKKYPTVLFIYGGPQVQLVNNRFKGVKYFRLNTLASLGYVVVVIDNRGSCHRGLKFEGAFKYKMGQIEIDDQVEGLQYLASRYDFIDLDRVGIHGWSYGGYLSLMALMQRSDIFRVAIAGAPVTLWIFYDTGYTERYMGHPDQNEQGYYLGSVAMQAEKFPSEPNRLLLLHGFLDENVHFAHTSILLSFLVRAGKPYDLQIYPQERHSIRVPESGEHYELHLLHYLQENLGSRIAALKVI
Method: as §2, §3, §4

CN(CB(O)O)C(=S)[C@@H](N)CCC(=O)O.Cl [Compound 5, Glu-boroSar[thioxo amide]hydrochloride]
selectivity against PREP in vitro (PREP): good selectivity | more potent inhibitor of DPP IV than compound 11 (DPP IV): about 66 fold | more potent for DPP IV than for DPP9 (selectivity) (DPP9 [1]): 6,000 × | IC50 (DPP9 [2]): 828 µM | signs of toxicity after 24 h (Sprague-Dawley (SD) rats): no sign of toxicity | selectivity against FAP in vitro (FAP): good selectivity | more potent for DPP IV than for DPP8 (selectivity) (DPP8): 13,000 ×

Source: patent US8513187B2, “Soft protease inhibitors, and pro-soft forms thereof” (priority 2009, dated 2013)
